Assay results: EP0019589A1, “Tripeptide derivatives and their use in a process for determining enzymes” (Pentapharm A.G., priority 1979, dated 1980)
Non-standard residues stand in square brackets, D forms with d. Residues, ends and D or L forms follow the SMILES beside them. *: point of attachment. Cha = N[C@@H](CC1CCCCC1)C(=O)O; dCha = N[C@H](CC1CCCCC1)C(=O)O; dChg = N[C@@H](C(=O)O)C1CCCCC1; pNA = O=[N+]([O-])c1ccc(N*)cc1; dNle = CCCC[C@@H](N)C(=O)O; dNva = CCC[C@@H](N)C(=O)O; dAbu = CC[C@@H](N)C(=O)O; Nva = CCC[C@H](N)C(=O)O; Abu = CC[C@H](N)C(=O)O

Tests used:
Format in all cases: biochemical
Humanplasmin = molecular target: T1, Humanplasmin (Homo sapiens, UniProt P00747); test: Cleavage of chromogenic substrate by human plasmin; conditions: 1 CU-Einheit human plasmin, per min; Substratkonzentration 2 x 10^-4 molar
T1 construct: da bei der Aktivierung aus 1 Molekül Plasminogen 1 Molekül Plasmin entsteht
T1 sequence (P00747 581-810 limits assumed): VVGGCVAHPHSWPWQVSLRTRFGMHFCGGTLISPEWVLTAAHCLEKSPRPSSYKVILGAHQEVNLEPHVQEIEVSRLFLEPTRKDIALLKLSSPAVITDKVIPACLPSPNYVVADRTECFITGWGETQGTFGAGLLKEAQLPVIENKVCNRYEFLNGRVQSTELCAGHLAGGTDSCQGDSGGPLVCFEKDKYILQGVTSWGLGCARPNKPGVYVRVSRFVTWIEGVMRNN
T1 sequence (P00747 97-580 partner limits assumed): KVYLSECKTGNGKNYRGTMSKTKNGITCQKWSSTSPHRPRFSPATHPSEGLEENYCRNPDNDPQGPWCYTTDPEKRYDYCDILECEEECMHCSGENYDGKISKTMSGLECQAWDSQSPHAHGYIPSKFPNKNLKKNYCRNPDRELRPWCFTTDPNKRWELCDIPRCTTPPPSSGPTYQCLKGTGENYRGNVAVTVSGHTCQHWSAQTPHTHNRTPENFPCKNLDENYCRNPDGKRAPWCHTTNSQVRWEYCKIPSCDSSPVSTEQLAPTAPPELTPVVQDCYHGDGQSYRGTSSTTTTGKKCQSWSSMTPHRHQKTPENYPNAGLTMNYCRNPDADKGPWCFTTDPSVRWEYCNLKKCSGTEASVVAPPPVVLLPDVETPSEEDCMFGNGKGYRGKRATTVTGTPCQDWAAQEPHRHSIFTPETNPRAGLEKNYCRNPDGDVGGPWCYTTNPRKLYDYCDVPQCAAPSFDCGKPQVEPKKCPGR

[1] = molecular target: T2, Submandibularis-Kallikrein (Homo sapiens, UniProt P06870); test: Cleavage of chromogenic substrate by submandibular (glandular) kallikrein in human sputum; conditions: 1 ml human sputum, per min; Substratkonzentration 2 x 10^-4 molar
T2 construct: Man mischt 0,5 ml Sputum mit 2 ml TRIS-Imidazol-Puffer; from tissue; host or cells: human sputum
T2 sequence (P06870 25-262): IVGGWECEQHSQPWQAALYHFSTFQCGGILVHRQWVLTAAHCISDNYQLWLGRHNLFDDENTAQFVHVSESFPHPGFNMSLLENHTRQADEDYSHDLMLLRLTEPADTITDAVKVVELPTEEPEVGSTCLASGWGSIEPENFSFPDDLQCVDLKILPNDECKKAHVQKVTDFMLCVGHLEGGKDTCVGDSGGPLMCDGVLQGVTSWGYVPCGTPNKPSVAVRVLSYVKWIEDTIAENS
How it was run: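 Sputum mixed with TRIS-imidazole buffer (ionic strength 1.0), preincubated 5 min at 37°C and centrifuged; supernatant incubated with aqueous substrate solution (2 x 10^-3 M, stock). p-Nitroaniline release followed continuously at 405 nm for 5-10 min; activity expressed as mU per ml sputum from ΔOD/min.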

Urinkallikrein = molecular target: T3, Urinkallikrein (Homo sapiens, UniProt P06870); test: Cleavage of chromogenic substrate by urinary kallikrein in human urine; conditions: 1 ml human urine (pooled morning urine of healthy persons), per min; Substratkonzentration 2 x 10^-4 molar
T3 construct: 1 ml Urin und 1 ml TRIS-Imidazol-Puffer mit pH 7,9; from tissue; host or cells: human urine
T3 sequence (P06870 25-262): as above

Humanthrombin = molecular target: T4, Humanthrombin (Homo sapiens, UniProt P00734); test: Cleavage of chromogenic substrate by human NIH thrombin; conditions: 1 NIH-Einheit human thrombin, per min; Substratkonzentration 2 x 10^-4 molar
T4 construct: Humanplasmin und hu-manem NIH-Thrombin
How it was run: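 Thrombin hydrolysis of chromogenic p-nitroanilide substrate read spectrophotometrically at 405 nm; fluorogenic naphthylamine, methylcoumarylamine or di(methoxycarbonyl)phenylamine substrates read continuously by fluorescence emission at 400-470 nm. Activity taken as product formed per unit time; 1 µmol product/min defined as 1 enzyme unit for a given substrate.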

SMILES: CCC[C@H](NC(=O)[C@H](N)CC1CCCCC1)C(=O)N[C@@H](CCCNC(=N)N)C(=O)Nc1ccc([N+](=O)[O-])cc1 [Beispiel 69, 2HBr.H-D-CHA-Nval-Arg-pNA] (H-[dCha]-[Nva]-Arg-pNA)
- Menge des durch 1 CU-Einheit Humanplasmin pro Min. freigesetzten Spaltproduktes R-NH2 in Nanomol (Humanplasmin) (Humanplasmin): 574 Nanomol
- Menge des durch 1 ml Humansputum pro Min. freigesetzten Spaltproduktes R-NH2 in Nanomol (Submandibularis-Kallikrein) [1]: 14,2 Nanomol
- Menge des durch 1 ml Humanurin pro Min. freigesetzten Spaltproduktes R-NH2 in Nanomol (Urinkallikrein) (Urinkallikrein): 0,35 Nanomol
- Menge des durch 1 NIH-Einheit Thrombin pro Min. freigesetzten Spaltproduktes R-NH2 in Nanomol (Humanthrombin) (Humanthrombin): 97,1 Nanomol

SMILES: CCC[C@H](NC(=O)[C@H](N)C1CCCCC1)C(=O)N[C@@H](CCCNC(=N)N)C(=O)Nc1ccc([N+](=O)[O-])cc1 [Beispiel 70, 2HBr.H-D-CHG-Nval-Arg-pNA] (H-[dChg]-[Nva]-Arg-pNA)
- Menge des durch 1 CU-Einheit Humanplasmin pro Min. freigesetzten Spaltproduktes R-NH2 in Nanomol (Humanplasmin) (Humanplasmin): 488 Nanomol
- Menge des durch 1 ml Humansputum pro Min. freigesetzten Spaltproduktes R-NH2 in Nanomol (Submandibularis-Kallikrein) [1]: 24,2 Nanomol
- Menge des durch 1 ml Humanurin pro Min. freigesetzten Spaltproduktes R-NH2 in Nanomol (Urinkallikrein) (Urinkallikrein): 0,38 Nanomol
- Menge des durch 1 NIH-Einheit Thrombin pro Min. freigesetzten Spaltproduktes R-NH2 in Nanomol (Humanthrombin) (Humanthrombin): 67,4 Nanomol

SMILES: CCC[C@@H](N)C(=O)N[C@@H](CC1CCCCC1)C(=O)N[C@@H](CCCCN)C(=O)Nc1ccc([N+](=O)[O-])cc1 [Beispiel 71, 2HBr.H-D-Nval-CHA-Lys-pNA] (H-[dNva]-[Cha]-Lys-pNA)
- Menge des durch 1 CU-Einheit Humanplasmin pro Min. freigesetzten Spaltproduktes R-NH2 in Nanomol (Humanplasmin) (Humanplasmin): 655 Nanomol
- Menge des durch 1 ml Humansputum pro Min. freigesetzten Spaltproduktes R-NH2 in Nanomol (Submandibularis-Kallikrein) [1]: 18,04 Nanomol
- Menge des durch 1 ml Humanurin pro Min. freigesetzten Spaltproduktes R-NH2 in Nanomol (Urinkallikrein) (Urinkallikrein): 1,87 Nanomol
- Menge des durch 1 NIH-Einheit Thrombin pro Min. freigesetzten Spaltproduktes R-NH2 in Nanomol (Humanthrombin) (Humanthrombin): 6,9 Nanomol

SMILES: CC[C@@H](N)C(=O)N[C@@H](CC1CCCCC1)C(=O)N[C@@H](CCCCN)C(=O)Nc1ccc([N+](=O)[O-])cc1 [Beispiel 72, 2HBr.H-D-But-CHA-Lys-pNA] (H-[dAbu]-[Cha]-Lys-pNA)
- Menge des durch 1 CU-Einheit Humanplasmin pro Min. freigesetzten Spaltproduktes R-NH2 in Nanomol (Humanplasmin) (Humanplasmin): 532 Nanomol
- Menge des durch 1 ml Humansputum pro Min. freigesetzten Spaltproduktes R-NH2 in Nanomol (Submandibularis-Kallikrein) [1]: 21,0 Nanomol
- Menge des durch 1 ml Humanurin pro Min. freigesetzten Spaltproduktes R-NH2 in Nanomol (Urinkallikrein) (Urinkallikrein): 2,22 Nanomol
- Menge des durch 1 NIH-Einheit Thrombin pro Min. freigesetzten Spaltproduktes R-NH2 in Nanomol (Humanthrombin) (Humanthrombin): 3,6 Nanomol

SMILES: CC(C)C[C@@H](N)C(=O)N[C@@H](CC1CCCCC1)C(=O)N[C@@H](CCCCN)C(=O)Nc1ccc([N+](=O)[O-])cc1 [Beispiel 73, 2HBr.H-D-Leu-CHA-Lys-pNA] (H-[dL]-[Cha]-Lys-pNA)
- Menge des durch 1 CU-Einheit Humanplasmin pro Min. freigesetzten Spaltproduktes R-NH2 in Nanomol (Humanplasmin) (Humanplasmin): 778 Nanomol
- Menge des durch 1 ml Humansputum pro Min. freigesetzten Spaltproduktes R-NH2 in Nanomol (Submandibularis-Kallikrein) [1]: 19,3 Nanomol
- Menge des durch 1 ml Humanurin pro Min. freigesetzten Spaltproduktes R-NH2 in Nanomol (Urinkallikrein) (Urinkallikrein): 1,73 Nanomol
- Menge des durch 1 NIH-Einheit Thrombin pro Min. freigesetzten Spaltproduktes R-NH2 in Nanomol (Humanthrombin) (Humanthrombin): 3,4 Nanomol

SMILES: CCCC[C@@H](N)C(=O)N[C@@H](CC1CCCCC1)C(=O)N[C@@H](CCCCN)C(=O)Nc1ccc([N+](=O)[O-])cc1 [Beispiel 74, 2HBr.H-D-Nleu-CHA-Lys-pNA] (H-[dNle]-[Cha]-Lys-pNA)
- Menge des durch 1 CU-Einheit Humanplasmin pro Min. freigesetzten Spaltproduktes R-NH2 in Nanomol (Humanplasmin) (Humanplasmin): 695 Nanomol
- Menge des durch 1 ml Humansputum pro Min. freigesetzten Spaltproduktes R-NH2 in Nanomol (Submandibularis-Kallikrein) [1]: 8,4 Nanomol
- Menge des durch 1 ml Humanurin pro Min. freigesetzten Spaltproduktes R-NH2 in Nanomol (Urinkallikrein) (Urinkallikrein): 0,77 Nanomol
- Menge des durch 1 NIH-Einheit Thrombin pro Min. freigesetzten Spaltproduktes R-NH2 in Nanomol (Humanthrombin) (Humanthrombin): 3,9 Nanomol

SMILES: CC[C@H](NC(=O)[C@H](N)C1CCCCC1)C(=O)N[C@@H](CCCNC(=N)N)C(=O)Nc1ccc([N+](=O)[O-])cc1 [Beispiel 75, 2HBr.H-D-CHG-But-Arg-pNA] (H-[dChg]-[Abu]-Arg-pNA)
- Menge des durch 1 CU-Einheit Humanplasmin pro Min. freigesetzten Spaltproduktes R-NH2 in Nanomol (Humanplasmin) (Humanplasmin): 439 Nanomol
- Menge des durch 1 ml Humansputum pro Min. freigesetzten Spaltproduktes R-NH2 in Nanomol (Submandibularis-Kallikrein) [1]: 14,5 Nanomol
- Menge des durch 1 ml Humanurin pro Min. freigesetzten Spaltproduktes R-NH2 in Nanomol (Urinkallikrein) (Urinkallikrein): 0,51 Nanomol
- Menge des durch 1 NIH-Einheit Thrombin pro Min. freigesetzten Spaltproduktes R-NH2 in Nanomol (Humanthrombin) (Humanthrombin): 102,9 Nanomol

SMILES: CC[C@H](NC(=O)[C@H](N)CC1CCCCC1)C(=O)N[C@@H](CCCNC(=N)N)C(=O)Nc1ccc([N+](=O)[O-])cc1 [Beispiel 76, 2HBr.H-D-CHA-But-Arg-pNA] (H-[dCha]-[Abu]-Arg-pNA)
- Menge des durch 1 CU-Einheit Humanplasmin pro Min. freigesetzten Spaltproduktes R-NH2 in Nanomol (Humanplasmin) (Humanplasmin): 478 Nanomol
- Menge des durch 1 ml Humansputum pro Min. freigesetzten Spaltproduktes R-NH2 in Nanomol (Submandibularis-Kallikrein) [1]: 18,1 Nanomol
- Menge des durch 1 ml Humanurin pro Min. freigesetzten Spaltproduktes R-NH2 in Nanomol (Urinkallikrein) (Urinkallikrein): 0,51 Nanomol
- Menge des durch 1 NIH-Einheit Thrombin pro Min. freigesetzten Spaltproduktes R-NH2 in Nanomol (Humanthrombin) (Humanthrombin): 108,9 Nanomol

SMILES: CC[C@H](NC(=O)[C@H](N)CC1CCC(O)CC1)C(=O)N[C@@H](CCCNC(=N)N)C(=O)Nc1ccc([N+](=O)[O-])cc1 (stereo partly drawn) [Beispiel 77, 2HBr.H-D-CHT-But-Arg-pNA]
- Menge des durch 1 CU-Einheit Humanplasmin pro Min. freigesetzten Spaltproduktes R-NH2 in Nanomol (Humanplasmin) (Humanplasmin): 463 Nanomol
- Menge des durch 1 ml Humansputum pro Min. freigesetzten Spaltproduktes R-NH2 in Nanomol (Submandibularis-Kallikrein) [1]: 18,2 Nanomol
- Menge des durch 1 ml Humanurin pro Min. freigesetzten Spaltproduktes R-NH2 in Nanomol (Urinkallikrein) (Urinkallikrein): 0,64 Nanomol
- Menge des durch 1 NIH-Einheit Thrombin pro Min. freigesetzten Spaltproduktes R-NH2 in Nanomol (Humanthrombin) (Humanthrombin): 114,2 Nanomol
